Data reported in patent publication US4104384A, “1-(2'-Aroyl eth-1'yl) 2-(4"-acetamido piperazine-1"yl methyl) benzimidazoles and their therapeutical applications” (priority 1975, dated 1978).

Columns and labels:
gastric secretion = assay: Gastric antisecretory properties: gastric secretion after Shay ligature, intraduodenal; type: in vivo; conditions: rat, read-out: Reduction of volume of gastric secretion; for inhibition in vivo at 1.6 mg/kg: 1.6 mg/kg/i.d.; for inhibition in vivo at 1.5 mg/kg: 1.5 mg/kg/i.d.; for inhibition in vivo at 10 mg/kg: 10 mg/kg/i.d.
From the text: Administered intraduodenally to a rat, the compounds of formula (I) are capable of reducing gastric secretion measured after Shay ligature.

stress ulcers = assay: Anti-ulcerous properties: ulcerations in rat under stress for 7 hours, oral; type: in vivo; conditions: for inhibition in vivo at 7.7 mg/kg: 7.7 mg/kg/p.o.; for inhibition in vivo at 7.4 mg/kg: 7.4 mg/kg/p.o.; for inhibition in vivo at 20 mg/kg: 20 mg/kg/p.o.
Shay's ulcer = assay: Anti-ulcerous properties: ulceration caused by ligature of the pylorus (Shay's ulcers), intraduodenal; type: in vivo; conditions: rat, read-out: Percentage reduction of Shay's ulcer; for inhibition in vivo at 10 mg/kg: 10 mg/kg/i.d.; for inhibition in vivo at 15.5 mg/kg: 15.5 mg/kg/i.d.; for inhibition in vivo at 14.8 mg/kg: 14.8 mg/kg/i.d.; for inhibition in vivo at 7.3 mg/kg: 7.3 mg/kg/i.d.
From the text: Furthermore, the compounds of formula (I) administered intraduodenally reduce the ulceration area caused by ligature of the pylorus of a rat (Shay's ulcers).

[1] = tested on: bronchoconstriction caused by acetylcholine; assay: Anticholinergic and antibronchoconstrictive: bronchoconstriction by intravenous acetylcholine, Konzett's method; type: in vivo; conditions: Cavia porcellus, guinea-pig, read-out: Percentage inhibition of the bronchoconstriction
From the text: Injected intravenously or intraduodenally, the compounds of formula (I) are capable of opposing bronchoconstriction caused in a guinea-pig by intravenous injection of acetylcholine and evaluated by Konzett's method.

jejunal ansa of a rabbit = assay: Spasmolytic in vivo: contractions of the jejunal ansa caused by electric stimulation
From the text: The compounds of formula (I), administered intraduodenally are capable of reducing the contractions of the jejunal ansa of a rabbit, caused by electric stimulation.

painful stretchings = assay: Analgesic: painful stretchings following intraperitoneal injection of acetic acid; type: in vivo; conditions: po, mouse, read-out: Percentage diminution painful stretchings; for inhibition in vivo at 40 mg/kg: 40 mg/kg/p.o.; for inhibition in vivo at 50 mg/kg: 50 mg/kg/p.o.
From the text: The compounds of formula (I), administered orally to a mouse, are capable of reducing the number of painful stretchings following intraperitioneal injection of acetic acid.

sub-plantar oedema = assay: Anti-inflammatory: sub-plantar oedema caused by carragenine; type: in vivo; conditions: po, rat, read-out: Percentage reduction of sub-plantar oedema; for inhibition in vivo at 50 mg/kg: 50 mg/kg/p.o.
[2] = Acute toxicity, lethal dose 50; conditions: mouse, in vivo, po, read-out: Lethal dose 50 (mouse) / DL 50 (mouse) (converted)
[3] = po, read-out: Percentage reduction of stress ulcers

O=C(CCn1c(CN2CCN(CC(=O)N3CCCC3)CC2)nc2ccccc21)c1ccccc1 [73 0458, 1-(2'-benzoyleth-1' yl) 2-(4"-pyrrolidinocarbonylmethylpiperazine-1" ylmethyl) benzimidazole]
inhibition in vivo at 2 mg/kg (gastric secretion; Rat2, intraduodenal, 2 mg/kg/i.d.): 19% | inhibition in vivo at 5 mg/kg (stress ulcers; po, 5 mg/kg/p.o., read-out: Percentage reduction of stress ulcers): 77% | inhibition in vivo at 10 mg/kg (Shay's ulcer): 90% | inhibition in vivo at 100 mg/kg ([1]; intraduodenal, i.d., 100 mg/kg): 67%

CCNC(=O)CN1CCN(Cc2nc3ccccc3n2CCC(=O)c2ccccc2)CC1 [74 0144]
inhibition in vivo at 1.6 mg/kg (gastric secretion; intraduodenal): 85% | inhibition in vivo at 7.7 mg/kg (stress ulcers; [3]): 99% | inhibition in vivo at 15.5 mg/kg (Shay's ulcer): 98% | Diminution of contractions of the jejunum for more than an hour (jejunal ansa of a rabbit; 15.5 mg/kg/i.d.): 43% | inhibition in vivo at 4 mg/kg ([1]; iv, i.v., 4 mg/kg): 100% | inhibition in vivo at 40 mg/kg (painful stretchings): 92% | inhibition in vivo at 30 mg/kg (sub-plantar oedema; 30 mg/kg/p.o.): 35% | LD50 [2]: 310 mg/kg

CNC(=O)CN1CCN(Cc2nc3ccccc3n2CCC(=O)c2ccccc2)CC1 [74 0145]
inhibition in vivo at 1.6 mg/kg (gastric secretion; intraduodenal): 88% | inhibition in vivo at 7.7 mg/kg (stress ulcers; [3]): 100% | inhibition in vivo at 15.5 mg/kg (Shay's ulcer): 100% | inhibition in vivo at 0.5 mg/kg ([1]; iv, i.v., 0.5 mg/kg): 75% | inhibition in vivo at 10 mg/kg (painful stretchings; 10 mg/kg/p.o.): 70% | inhibition in vivo at 10 mg/kg (sub-plantar oedema; 10 mg/kg/p.o.): 40% | LD50 [2]: 180 mg/kg

CCCNC(=O)CN1CCN(Cc2nc3ccccc3n2CCC(=O)c2ccccc2)CC1 [74 0159]
inhibition in vivo at 1.5 mg/kg (gastric secretion; intraduodenal): 77% | inhibition in vivo at 7.5 mg/kg (stress ulcers; po, 7.5 mg/kg/p.o., read-out: Percentage reduction of stress ulcers): 100% | inhibition in vivo at 7.6 mg/kg (stress ulcers; po, 7.6 mg/kg/p.o., read-out: Percentage reduction of stress ulcers): 100% | inhibition in vivo at 15.1 mg/kg (Shay's ulcer; 15.1 mg/kg/i.d.): 100% | inhibition in vivo at 5 mg/kg ([1]; iv, i.v.): 100% | inhibition in vivo at 50 mg/kg (painful stretchings): 40% | inhibition in vivo at 50 mg/kg (sub-plantar oedema): 57% | LD50 [2]: 1250 mg/kg

O=C(CCn1c(CN2CCN(CC(=O)N3CCOCC3)CC2)nc2ccccc21)c1ccccc1 [74 0160]
inhibition in vivo at 1.5 mg/kg (gastric secretion; intraduodenal): 45% | inhibition in vivo at 6 mg/kg (stress ulcers; po, 6 mg/kg/p.o., read-out: Percentage reduction of stress ulcers): 76% | inhibition in vivo at 15 mg/kg (Shay's ulcer; 15 mg/kg/i.d.): 99% | inhibition in vivo at 50 mg/kg (sub-plantar oedema): 50% | LD50 [2]: 1700 mg/kg

CN(C)C(=O)CN1CCN(Cc2nc3ccccc3n2CCC(=O)c2ccccc2)CC1 [74 0180]
inhibition in vivo at 1.5 mg/kg (gastric secretion; intraduodenal): 86% | inhibition in vivo at 7.7 mg/kg (stress ulcers; [3]): 100% | inhibition in vivo at 7.7 mg/kg (Shay's ulcer; 7.7 mg/kg/i.d.): 94% | Diminution of contractions of the jejunum for more than an hour (jejunal ansa of a rabbit; 15.4 mg/kg/i.d.): 50% | inhibition in vivo at 5 mg/kg ([1]; iv, i.v.): 100% | inhibition in vivo at 50 mg/kg (painful stretchings): 53% | inhibition in vivo at 50 mg/kg (sub-plantar oedema): 47% | LD50 [2]: 716 mg/kg

CCCCNC(=O)CN1CCN(Cc2nc3ccccc3n2CCC(=O)c2ccccc2)CC1 [74 0186]
inhibition in vivo at 1.5 mg/kg (gastric secretion; intraduodenal): 67% | inhibition in vivo at 7.4 mg/kg (stress ulcers; [3]): 98% | inhibition in vivo at 14.8 mg/kg (Shay's ulcer): 75% | inhibition in vivo at 2 mg/kg ([1]; iv, i.v., 2 mg/kg): 100% | inhibition in vivo at 40 mg/kg (painful stretchings): 77% | inhibition in vivo at 40 mg/kg (sub-plantar oedema; 40 mg/kg/p.o.): 48% | LD50 [2]: 360 mg/kg

CC(C)CNC(=O)CN1CCN(Cc2nc3ccccc3n2CCC(=O)c2ccccc2)CC1 [74 0187]
inhibition in vivo at 1.5 mg/kg (gastric secretion; intraduodenal): 78% | inhibition in vivo at 7.4 mg/kg (stress ulcers; [3]): 100% | inhibition in vivo at 14.8 mg/kg (Shay's ulcer): 94% | inhibition in vivo at 5 mg/kg ([1]; iv, i.v.): 100% | inhibition in vivo at 50 mg/kg (painful stretchings): 42% | inhibition in vivo at 50 mg/kg (sub-plantar oedema): 47% | LD50 [2]: 1600 mg/kg

O=C(CCn1c(CN2CCN(CC(=O)N3CCCCCC3)CC2)nc2ccccc21)c1ccccc1 [74 0195]
inhibition in vivo at 7.1 mg/kg (stress ulcers; po, 7.1 mg/kg/p.o., read-out: Percentage reduction of stress ulcers): 59% | inhibition in vivo at 14.2 mg/kg (Shay's ulcer; 14.2 mg/kg/i.d.): 86% | Diminution of contractions of the jejunum of a rabbit (jejunal ansa of a rabbit; 14.2 mg/kg/i.d.): 30% | inhibition in vivo at 25 mg/kg ([1]; intraduodenal, i.d., 25 mg/kg): 60% | inhibition in vivo at 50 mg/kg (painful stretchings): 53% | LD50 [2]: > 2000 mg/kg

CCCN(CCC)C(=O)CN1CCN(Cc2nc3ccccc3n2CCC(=O)c2ccccc2)CC1 [74 0196]
inhibition in vivo at 1.5 mg/kg (gastric secretion; intraduodenal): 74% | inhibition in vivo at 7.3 mg/kg (stress ulcers; po, 7.3 mg/kg/p.o., read-out: Percentage reduction of stress ulcers): 88% | inhibition in vivo at 7.3 mg/kg (Shay's ulcer): 90% | LD50 [2]: 2100 mg/kg

CC(C)N(C(=O)CN1CCN(Cc2nc3ccccc3n2CCC(=O)c2ccccc2)CC1)C(C)C [74 0453]
inhibition in vivo at 7.3 mg/kg (Shay's ulcer): 82% | inhibition in vivo at 2.5 mg/kg ([1]; iv, i.v., 2.5 mg/kg): 100% | LD50 [2]: 1000 mg/kg

O=C(CN1CCN(Cc2nc3ccccc3n2CCC(=O)c2ccccc2)CC1)NC1CCCC1 [74 0751]
inhibition in vivo at 4.5 mg/kg (gastric secretion; intraduodenal, 4.5 mg/kg/i.d.): 69% | ED50 (stress ulcers; oral, read-out: DE 50, stress ulcers): 11 mg/kg | inhibition in vivo at 10 mg/kg (Shay's ulcer): 89% | LD50 [2]: 1100 mg/kg

Cc1ccc(C(=O)CCn2c(CN3CCN(CC(=O)NC(C)C)CC3)nc3ccccc32)cc1 [75 0009]
inhibition in vivo at 10 mg/kg (gastric secretion; intraduodenal): 62% | inhibition in vivo at 20 mg/kg (stress ulcers; [3]): 90% | inhibition in vivo at 20 mg/kg (Shay's ulcer; 20 mg/kg/i.d.): 56% | LD50 [2]: 1800 mg/kg

COc1cccc(C(=O)CCn2c(CN3CCN(CC(=O)NC(C)C)CC3)nc3ccccc32)c1 [75 0010]
inhibition in vivo at 25 mg/kg (gastric secretion; intraduodenal, 25 mg/kg/i.d.): 82% | inhibition in vivo at 20 mg/kg (stress ulcers; [3]): 77% | inhibition in vivo at 40 mg/kg (Shay's ulcer; 40 mg/kg/i.d.): 86% | LD50 [2]: 1200 mg/kg

CC(C)NC(=O)CN1CCN(Cc2nc3ccccc3n2CCC(=O)c2ccc(Cl)cc2)CC1 [75 0012]
inhibition in vivo at 10 mg/kg (gastric secretion; intraduodenal): 63% | inhibition in vivo at 20 mg/kg (stress ulcers; [3]): 64% | inhibition in vivo at 10 mg/kg (Shay's ulcer): 73% | LD50 [2]: 1300 mg/kg

NC(=O)CN1CCN(Cc2nc3ccccc3n2CCC(=O)c2ccccc2)CC1 [75 0102]
inhibition in vivo at 10 mg/kg (gastric secretion; intraduodenal): 91% | inhibition in vivo at 10 mg/kg (stress ulcers; po, 10 mg/kg/p.o., read-out: Percentage reduction of stress ulcers): 100% | inhibition in vivo at 10 mg/kg (Shay's ulcer): 74% | Diminution of contractions of the jejunum for more than an hour (jejunal ansa of a rabbit; 25 mg/kg/i.d.): 80% | LD50 [2]: 1300 mg/kg

C[N+]1(C)CCC(=C(c2ccccc2)c2ccccc2)CC1 [Diphemanil, diphemanil (methylsulfate), reference compound]
inhibition in vivo at 50 mg/kg (gastric secretion; intraduodenal, 50 mg/kg/i.d.): 52% | inhibition in vivo at 100 mg/kg (stress ulcers; po, 100 mg/kg/p.o., ratio equal to 315, read-out: Percentage reduction of stress ulcers): 91% | Diminution of contractions of the jejunum of a rabbit (jejunal ansa of a rabbit; 20 mg/kg/i.d.): 70% | LD50 [2]: 317 mg/kg
